# Laboratory results reported in patent US20130085133A1, “ANTI-VIRAL TREATMENT AND ASSAY TO SCREENFOR ANTI-VIRAL AGENT” (Sourthern Research Institute Office of Commercialization …, priority 2010, published 2013).
# What was measured:
# [1] = test system: respiratory syncytial virus (RSV) strain Long; test: microbe, parasite or virus in culture; conditions: human respiratory syncytial virus, HEp-2, 144 h
# [2] = cytotoxicity assay (percent viability of HEp-2 cells, Cell Titer-Glo); conditions: human
# Procedure: Test compounds were evaluated by measuring their antiviral activity, cell toxicity, and selectivity. Test compounds were serially diluted in a plate to plate matrix or “stacked plate” matrix. All 320 compounds in a source plate were diluted together resulting in a 10 point dose response dilution series. It was visualized as a serial dilution series proceeding vertically through a stack of plates with the high dose plate on top and the low dose plate on the bottom.
# Following the six day incubation period, the assay plates were equilibrated to room temperature for 30 min and an equal volume (30 μL) of Cell Titer-Glo reagent (Promega Inc.) was added to each well using a WellMate (Matrix, Hudson, N.H.) and plates were incubated for an additional 10 min at room temperature. At the end of the incubation, luminescence was measured using a Perkin Elmer Envision™ multi-label reader (PerkinElmer, Wellesley, Mass.) with an integration time of 0.1 s.
# Data was analyzed using ActivityBase software (IDBS, Inc, Guilford, UK). thirty two control wells containing cells only and twenty four wells containing cells and virus were included on each assay plate and used to calculate Z′ value for each plate and to normalize the data on a per plate basis. […] Eight ribavirin positive control wells were included on each plate for quality control purposes, but were not used in Z′ calculations. […] In the toxicity assay, results are described as percent viability and the calculation is the same.
# An EC50 (for CPE inhibition) and IC50 (for cell viability) were calculated for each substance using the 4 parameter Levenburg-Marquardt algorithm with parameter A locked at 0 and parameter B locked at 100. Standard deviation, normalized chi2 and hill slope were used to evaluate the curves. Values were not extrapolated beyond the tested range of concentrations.
Structure (SMILES),EC50 [1] [µg/mL],CC50 at 6 days ([2]; HEp-2 cells) [µg/mL],CC50 at 6 days [2] [µg/mL]
CCc1c(C)sc(NC(=O)c2ccc(C)o2)c1C(N)=O [AB00313012],18,> 25,
Cc1cccc(C)c1NC(=O)c1cccc(C(=O)Nc2c(C)cccc2C)n1 [AB00313091],19.5,> 25,
COc1ccc(-c2cc(C(=O)O)c3cc(Br)ccc3n2)c(OC)c1 [AB00313218],22.2,> 25,
NC(=O)c1c(NC(=O)Nc2cccc(Cl)c2)sc2c1CCCC2 [AB00313952],2.72,> 25,
CC(Oc1ccc(Cl)cc1Cl)C(=O)Nc1ccc(F)c(F)c1 (stereo not drawn) [AB00314248],23.8,> 25,
COC(=O)Nc1ccc2ccccc2c1 [AB00314279],23.5,> 25,
C=CCNc1cc(N2CCN(C(=O)c3ccc(Cl)cc3)CC2)ccc1[N+](=O)[O-] [AB00315446],12,> 25,
Cc1cc(C)cc(OCC(=O)N2CCc3ccccc3C2)c1 [AB00315731],21.1,> 25,
O=C(CCN1C(=O)c2cccc3cccc(c23)C1=O)N1CCc2ccccc2C1 [AB00315918],15.4,> 25,
Cc1cccc(NCc2cc(Cl)ccc2O)n1 [AB00317095],24.3,> 25,
CCOc1ccc(-c2nnc(Nc3ccc(OC)c(C(=O)NC)c3)c3ccccc23)cc1 [AB00317165],19.5,> 25,
O=C(Nc1cccc(Br)c1)C1CCN(C(=O)c2ccc([N+](=O)[O-])cc2)CC1 [AB00317214],12.4,> 25,
CC(C)(C)c1ccc(C(=O)N2CCC(C(=O)Nc3ccc4c(c3)OCO4)CC2)cc1 [AB00317272],22.3,> 25,
CCCCC(=O)Nc1cccc(NC(=O)c2ccccc2OC)c1 [AB00317410],22.8,> 25,
CC(C)(C)c1ccc(C(=O)N2CCC(C(=O)Nc3ccccc3Cl)CC2)cc1 [AB00317604],23.7,> 25,
CCOc1cc(C2CC(=O)Nc3c2ccc2ccccc32)cc(Cl)c1O (stereo not drawn) [AB00317685],20.9,> 25,
Cn1c(SC/C=C/c2ccccc2)nnc1-c1cccs1 [AB00318335],24.2,> 25,
COC(=O)C1=C(C)N(Cc2ccccc2)C(=O)NC1c1ccc(C(=O)OC)cc1 (stereo not drawn) [AB00318401],2.39,> 25,

Structure (SMILES),EC50 [1] [µg/mL],CC50 at 6 days ([2]; HEp-2 cells) [µg/mL],CC50 at 6 days [2] [µg/mL]
CCCCC(=O)Nc1cccc(NC(=O)c2ccc(OCC)c([N+](=O)[O-])c2)c1 [AB00318606],23.5,> 25,
Cc1ccnc(NCc2cc(Br)ccc2O)c1 [AB00318952],22.2,> 25,
Cc1ccccc1C(=O)NC(=S)Nc1cccc(F)c1 [AB00319373],24.4,> 25,
C=CCNc1cc(N2CCN(C(=O)c3ccc(C)cc3)CC2)ccc1[N+](=O)[O-] [AB00319534],13.8,> 25,
CNc1cc(N2CCCC2)ccc1[N+](=O)[O-] [AB00322577],18.7,> 25,
O=Cc1cc(Br)c(Sc2ncccn2)o1 [AB00326733],18.8,> 25,
CCOC(=O)C1=C(C)Nc2ncnn2C1c1ccc(OC)c(OCC)c1 (stereo not drawn) [AB00335740],21.1,> 25,
COc1ccc(-c2nc3ccccc3s2)cc1O [AB00339206],21.9,> 25,
CN(C)C(=O)Oc1ccc2ccccc2c1Cl [AB00339302],12.3,,> 25
Cc1cc(C)cc(C(=O)Nc2ccc(C#N)cc2)c1 [AB00340723],19.8,> 25,
N#C/C(=C\c1ccc(-c2ccc(Cl)c(Cl)c2)o1)C(N)=S [AB00344427],17.9,> 25,
Fc1cccc(NC(=S)NNC(=S)Nc2ccc(Cl)cc2)c1 [AB00348154],10.6,> 25,
CCOC(=O)c1ccc(NC(=O)NCCc2ccccc2OC)cc1 [AB00348268],21.4,> 25,
CC(=O)c1cccc(NC(=S)NNC(=S)Nc2ccc(F)cc2F)c1 [AB00349666],21.2,> 25,
CCOC(=O)c1ccc(NC(=O)NC(C)C2CCCO2)cc1 (stereo not drawn) [AB00349705],19.2,> 25,
COC(=O)c1sc2cc(NC(=S)NCCCN3CCCC3=O)ccc2c1Cl [AB00351451],17.5,> 25,
COc1ccc(-c2ccc(-c3noc(-c4ccco4)n3)c(OC)n2)cc1 [AB00353001],18.4,> 25,
CCOC(=O)C1=C(c2ccccc2)NC(=S)NC1c1ccccc1OCC(=O)Nc1ccccc1 (stereo not drawn) [AB00355044],6.39,> 25,
